Measured values published in patent US9402875B2, “Amidated dopamine neuron stimulating peptide restoration of mitochondrial activity” (University of Kentucky Research Foundation, priority 2006, dated 2016).
Entries after “also recorded” stand apart in the source; their conditions may differ. Ends that are not written are not given here.

Legend:
B65 cells [1] = assay: JC-1 mitochondrial membrane potential assay; assay type: cell-based
Procedure: (§1) MN9D cells and B65 cells were cultured in Dulbecco's Modified Eagle's Medium (DMEM; 11995 (containing pyridoxol HCl); Sigma, St. Louis, Mo.) supplemented with 10% fetal bovine serum (HyClone, Logan, Utah), 50 U/mL penicillin and streptomycin. For each assay the cells were treated with mitochondrial-specific environmental toxins, i.e., MPP+, rotenone, and/or TaClo, and with or without DNSP-11. After incubation with the toxins, the cells were plated on 24-well poly-D-lysine plates (50,000 cells/well) for TUNEL assay (as described below) or 100,000 cell/well for caspase-3 assay in DMEM medium with 1% (v/v) penicillin-streptomycin only (as described below).
(§2) MN9D and B65 cells were treated with either 50 nM, 100 nM, 250 nM, 500 nM, 2.5 μM or 5 μM rotenone, 50 nM, 100 nM, 250 nM 1-methyl-4-phenylpyridinium (MPP+), or 10 μM , 25 μM, 50 μM, 100 μM, 150 μM or […]-1,2,3,4-tetrahydro-β-carboline (TaClo), for 1 to 12 hours and then incubated at 37° C. in 5% CO2 following pretreatment (1 to 30 minutes) with or without 100 nM or 10 nM DNSP-11. After treatment with rotenone, MPP+ or TaClo and incubation with DNSP-11, the cells were incubated for 30 minutes at 37° C. in a 5% CO2 incubator in the presence of 10 μM of the green fluorescent JC-1 (5,5′, 6,6′-tetrachloro-1,1′,3,3′-tetraethylbenzimidazolyl-cabo-cyanine iodine, T-3168 (Invitrogen)) and then washed in Locke's solution. Optical measurements were acquired with excitation at 485 nm and emission at 527 nm, and 590 nm. The levels of fluorescence at each emission wavelengths were quantified and ratio of measurements was assessed. The pertinent data are given as mean±S.E.M. for mean optical measurements. The values are expressed as percent of the mean control values ±S.E.M. and analyzed using ANOVA.

MN9D cells = assay: JC-1 mitochondrial membrane potential assay; assay type: cell-based
Procedure: as §1, §2

B65 cells [2] = assay: Caspase-3 activity assay, mitochondrial toxins; assay type: cell-based
Procedure: as §1
B65 cells were plated on 24-well poly-D-lysine plates in DMEM and 50u/ml penicillin and streptomycin. Cells incubated in either 50 nM, 100 nM, or 250 nM rotenone or 10 μM, […] or 50 μM TaClo for 1 to 12 hours at 37° C. in 5% CO2, following pretreatment (1 to 30 minutes) with or without 10 nM or 100 nM DNSP-11. The cells were then lysed and protein level measured by BCA assay (BioRad). The protein level were normalized for every experiment. The Enz Chek Caspase-3 Kit (Invitrogen) was used to detect caspase-3 activity and fluorescence was read on fluorescence reader (excitation/emission 496/520 nm). Data are expressed as % of control and were repeated a minimum of three times.

[3] = Distribution, uptake and half-life of DNSP-11 in the brain (immunostaining); assay type: in vivo, rat; details: male, F344, rat, brain, 30 ug; 30 μg intracerebral injection
Procedure: (§3) Additional studies were carried out to determine if DNSP-11 is actively taken up into dopamine-containing neurons in vivo. A single administration of 30 μg of DNSP-11 was delivered into the rat substantia nigra. Animals were euthanized at 0.5, 1.5, 4, 24 and 48 hrs after injection to visualize distribution of DNSP-11 using antibodies raised against DNSP-11 and the ubiquitinated form of DNSP-11. DNSP-11 antibodies labelled the cytosol and neurites of neurons in the area of the substantia nigra within 30 minutes after injection. DNSP-11 was taken up by neurons in both the substantia nigra, pars reticulata (SNr) and substantia nigra, pars compacta (SNc). […] Higher power micrographs from the SNc.
(§4) To assess the distribution, uptake and degradation of DNSP-11 in the brain, young adult male F344 rats, as a test organism, received injections of 30 μg DNSP-11 in the substantia nigra, hippocampus or cortex. They were euthanized by anesthesia overdose at various time points from 30 minutes to 48 hrs later and perfused through the heart with saline followed by paraformaldehyde.
(§5) Our standard published procedures for immuncytochemical staining were used (e.g. Gash D M et al., J Comp Neurol. 1995 December 18;363(3):345-58., Grondin et al., 2002; Ai et al., 2003). A polyclonal antibody was generated against DNSP-11 in rabbits (Alpha Diagnostic International, San Antonio, Tex.). Endogenous peroxidases were inactivated by incubation with 0.2% hydrogen peroxide (H2O2) for 10 minutes and background blocked with 4% normal serum, 1% bovine serum albumin (BSA) for 1 hour. Free floating sections were incubated in primary antisera. Sections were then exposed to the appropriate biotinylated IgG (Vecto Labs, Burlingame, Calif.) for 1 hour and then incubated in avidin-biotin-peroxidase complex using Elite ABC Vectastain Kits (Vector Labs) for 1 hour. Some sections were double-labeled using procedures following our published procedures for immunocytochemical staining to identify cells with two markers (e.g. Ai et al., 2003).
(§6) Controls for immunostaining included the omission of primary antibodies and replacement of primary antibodies with normal serum of the same species.

rat brain neurons = assay: as above; assay type: in vivo
Procedure: as §3, §4, §5, §6

Erk1/2 = assay: ERK1/2 activation by western blot; assay type: cell-based; details: DNSP-11 0.1 uM or 1 uM or GDNF 50 ng/ml for 20 minutes
Procedure: MN9D and B65 cell were cultured in DMEM; 11995 (containing pyridoxol HCl; Sigma, St. Louis, Mo.) supplemented with 10% fetal bovine serum (HyClone, Logan, Utah), 50 U/mL penicillin and streptomycin with DNSP-11 (0.1 uM or 1 uM) or GDNF (50 ng/ml) for 20 minutes. The cells were then solubilized in Triton-X-100/glycerol lysis buffer and subjected to electrophoresis and western blotting as partially described previously (Jiang et al., Mol Biol Cell 14:859-70 (2003)). To detect phosphorylated Erk (#4377 Cell Signaling) and ERK (#4696 Cell Signaling) by immunoblotting, the cells were directly lysed in the sample loading buffer. Secondary IRDye 700X and IRDye800 conjugated, fluorescent antibodies (Rockland Inc.) were used to detect signal with Odyssey v3.0 scanning software. Several blots were analyzed to determine the linear range of the fluorescence signals, and quantifications were performed using densitometry analysis.

[4] = MPP+, rotenone or TaClo 1 to 12 hours, pretreatment with 10 nM or 100 nM DNSP-11
[5] = 30 μg bolus into mid-substantia nigra

Substance: PPEAPAEDRSL-NH2 [DNSP-11, PPEAPAEDRSL-amide]
- mitochondrial potential, protection from toxins (B65 cells [1]; [4]): protects the cells; also recorded: significant protection
- mitochondrial potential, DNSP-11 alone (B65 cells [1]; no toxin): no significant effect
- mitochondrial potential, protection from toxins (MN9D cells; [4]): protects the cells; also recorded: significant protection
- mitochondrial potential, DNSP-11 alone (MN9D cells; no toxin): no significant effect
- caspase-3 activity, DNSP-11 alone (B65 cells [2]; no toxin): no significant effect
- caspase-3 activity, protection from toxins (B65 cells [2]; rotenone or TaClo 1 to 12 hours, pretreatment with 10 nM or 100 nM DNSP-11): significant protection
- half-life [3]: < 24 h
- spread in the anterior-posterior plane (rat brain neurons; [5]): ~3 mm
- spread in the medial-lateral plane (rat brain neurons; [5]): ≤ 2 mm
- time to uptake by neurons after injection (rat brain neurons; 30 μg injected into rat substantia nigra (all brain areas evaluated)): ≤ 30 min
- immunohistochemical staining for DNSP-11 (rat brain neurons; 3 hrs after injection into substantia nigra): diminished
- immunohistochemical staining for DNSP-11 (rat brain neurons; 48 hours post peptide administration): no evidence of DNSP-11
- uptake into neurons of striatum, hippocampus and cortex (rat brain neurons; stereotaxic injections of 30 μg): Uptake was observed into neurons
- phosphorylation of Erk1/2 (ratio of phosphorylated to non-phosphorylated) (Erk1/2; B65 cells): increases significantly
- phosphorylation of Erk1/2 (ratio of phosphorylated to non-phosphorylated) (Erk1/2; MN9D cells): increases significantly
